From ChEMBL document CHEMBL1681645, “Pyrrolo[1,2-f]triazines as JAK2 inhibitors: achieving potency and selectivity for JAK2 over JAK3” (Bioorg Med Chem Lett, 2011)

What was measured:
[1] = molecular target: Tyrosine-protein kinase JAK2 (Homo sapiens, UniProt O60674); assay: Inhibition of JAK2 after 60 mins
[2] = Antiproliferative activity against human SET2 cells assessed as inhibition of [3H]thymidine incorporation after 72 hrs; format: functional, cell-based; conditions: SET-2
[3] = Selectivity ratio of IC50 for JAK3 over IC50 for JAK2
[4] = Selectivity ratio of IC50 for JAK1 over IC50 for JAK2
[5] = molecular target: T1, Tyrosine-protein kinase JAK3 (Homo sapiens, UniProt P52333); assay: Inhibition of JAK3 after 60 mins
T1 sequence (P52333 whole entry): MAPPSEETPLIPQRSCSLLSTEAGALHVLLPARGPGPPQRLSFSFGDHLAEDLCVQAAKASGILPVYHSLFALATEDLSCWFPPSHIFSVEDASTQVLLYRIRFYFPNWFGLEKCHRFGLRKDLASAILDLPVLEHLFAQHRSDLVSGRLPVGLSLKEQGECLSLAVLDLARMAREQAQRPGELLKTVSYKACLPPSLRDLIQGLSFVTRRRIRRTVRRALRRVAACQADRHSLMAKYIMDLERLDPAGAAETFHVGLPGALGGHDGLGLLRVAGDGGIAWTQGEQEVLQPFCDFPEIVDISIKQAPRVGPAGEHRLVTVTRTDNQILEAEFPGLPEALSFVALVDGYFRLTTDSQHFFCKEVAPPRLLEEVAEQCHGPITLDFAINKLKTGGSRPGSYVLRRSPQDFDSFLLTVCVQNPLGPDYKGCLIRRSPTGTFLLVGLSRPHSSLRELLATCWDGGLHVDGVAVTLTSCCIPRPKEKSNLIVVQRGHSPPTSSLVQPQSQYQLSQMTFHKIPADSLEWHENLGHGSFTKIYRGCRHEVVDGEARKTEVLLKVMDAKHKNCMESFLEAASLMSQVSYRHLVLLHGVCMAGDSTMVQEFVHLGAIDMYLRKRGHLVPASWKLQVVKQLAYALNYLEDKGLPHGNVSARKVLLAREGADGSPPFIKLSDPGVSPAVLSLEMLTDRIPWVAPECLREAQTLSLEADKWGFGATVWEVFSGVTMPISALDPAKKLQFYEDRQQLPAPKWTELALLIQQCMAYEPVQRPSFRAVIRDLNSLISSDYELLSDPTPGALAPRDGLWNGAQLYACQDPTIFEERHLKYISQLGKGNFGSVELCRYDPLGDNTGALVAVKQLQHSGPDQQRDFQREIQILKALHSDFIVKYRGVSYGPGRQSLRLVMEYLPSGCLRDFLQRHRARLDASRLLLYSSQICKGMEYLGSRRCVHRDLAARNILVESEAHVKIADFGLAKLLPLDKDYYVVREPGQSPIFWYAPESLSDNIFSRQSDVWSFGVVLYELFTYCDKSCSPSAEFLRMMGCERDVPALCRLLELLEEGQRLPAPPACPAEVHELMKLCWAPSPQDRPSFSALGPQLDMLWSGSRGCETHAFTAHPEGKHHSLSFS

Sequence of Tyrosine-protein kinase JAK2 (O60674 whole entry): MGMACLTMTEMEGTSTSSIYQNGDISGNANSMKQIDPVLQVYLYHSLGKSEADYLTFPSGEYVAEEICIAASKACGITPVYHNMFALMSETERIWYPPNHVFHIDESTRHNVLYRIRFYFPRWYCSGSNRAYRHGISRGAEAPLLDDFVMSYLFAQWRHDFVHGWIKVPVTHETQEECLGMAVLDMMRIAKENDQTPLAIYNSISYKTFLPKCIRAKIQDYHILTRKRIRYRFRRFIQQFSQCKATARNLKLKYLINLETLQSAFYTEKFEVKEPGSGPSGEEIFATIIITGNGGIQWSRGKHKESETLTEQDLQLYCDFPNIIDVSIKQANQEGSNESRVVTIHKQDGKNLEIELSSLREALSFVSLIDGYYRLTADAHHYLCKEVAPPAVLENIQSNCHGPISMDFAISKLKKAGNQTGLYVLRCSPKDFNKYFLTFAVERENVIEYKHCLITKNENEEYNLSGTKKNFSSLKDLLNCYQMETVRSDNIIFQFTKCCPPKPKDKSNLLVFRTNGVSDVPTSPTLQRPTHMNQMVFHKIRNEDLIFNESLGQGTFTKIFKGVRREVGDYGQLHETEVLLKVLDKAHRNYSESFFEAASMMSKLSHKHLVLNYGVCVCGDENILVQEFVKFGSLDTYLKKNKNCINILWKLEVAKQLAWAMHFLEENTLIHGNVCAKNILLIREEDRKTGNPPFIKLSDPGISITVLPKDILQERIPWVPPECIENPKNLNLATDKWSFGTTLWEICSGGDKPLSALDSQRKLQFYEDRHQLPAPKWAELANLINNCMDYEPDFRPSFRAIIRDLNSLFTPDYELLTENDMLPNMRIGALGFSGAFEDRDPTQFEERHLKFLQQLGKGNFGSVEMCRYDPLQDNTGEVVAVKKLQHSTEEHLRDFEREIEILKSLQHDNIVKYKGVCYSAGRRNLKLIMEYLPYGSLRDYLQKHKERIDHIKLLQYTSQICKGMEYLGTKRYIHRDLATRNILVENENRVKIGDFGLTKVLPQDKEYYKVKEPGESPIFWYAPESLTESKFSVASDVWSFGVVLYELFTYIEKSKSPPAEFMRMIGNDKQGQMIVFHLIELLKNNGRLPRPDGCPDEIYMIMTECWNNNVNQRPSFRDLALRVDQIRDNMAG

Row | SMILES | IC50 [1] [nM] | Ratio IC50 [3] | Ratio IC50 [4] | IC50 [5] [µM] | IC50 [2] [nM]
1 | Cc1cc(Nc2nc(N3CCN(C(=O)Cc4ccccc4C)CC3)nn3cccc23)n[nH]1 | 5.3 | – | – | – | 120
2 | Cc1cc(Nc2nc(N3CCN(C(=O)Cc4c(F)cc(Cl)cc4F)CC3)nn3cccc23)n[nH]1 | 1 | 67 | 3.8 | – | 80
3 | Cc1cc(Nc2nc(N3CCN(C(=O)c4ccccc4Cl)CC3)nn3cccc23)n[nH]1 | 7.3 | – | – | – | 71
4 | O=C(NC1CC1)c1cc(Nc2nc(N3CCN(C(=O)Cc4ccccc4)CC3)nn3cccc23)n[nH]1 | 2700 | – | – | – | 1400
5 | COc1ccccc1C(=O)N1CCN(c2nc(Nc3cc(C)[nH]n3)c3cccn3n2)CC1 | 3.5 | – | – | – | 90
6 | COc1cc(F)c(CC(=O)N2CCN(c3nc(Nc4cc(C)n[nH]4)c4cccn4n3)CC2)c(F)c1 | – | – | – | – | 110
7 | Cc1cc(Nc2nc(N3CCN(C(=O)Cc4ccccc4)CC3)nn3cccc23)n[nH]1 | 2.8 | – | – | – | 370
8 | Cc1cc(Nc2nc(N3CCN(C(=O)CCc4ccccc4)CC3)nn3cccc23)n[nH]1 | 2 | – | – | – | 76
9 | COc1ccc(CC(=O)N2CCN(c3nc(Nc4cc(C)[nH]n4)c4cccn4n3)CC2)cc1 | 1.2 | – | – | – | 630
10 | Cc1nnc(Nc2nc(N3CCN(C(=O)Cc4ccccc4)CC3)nn3cccc23)s1 | 14000 | 1.3 | – | 18 | 690
11 | Cc1cc(Nc2nc(N3CCN(C(=O)c4ccccc4C)CC3)nn3cccc23)n[nH]1 | 3 | – | – | – | 160
12 | Cc1cc(Nc2nc(N3CCN(C(=O)Cc4ccc(Cl)cc4)CC3)nn3cccc23)n[nH]1 | 0.6 | – | – | – | 590
13 | Cc1cc(Nc2nc(N3CCN(C(=O)c4ccccc4S(C)(=O)=O)CC3)nn3cccc23)n[nH]1 | 1.1 | – | – | – | 190
14 | CC1(c2cc(Nc3nc(N4CCN(C(=O)Cc5ccccc5)CC4)nn4cccc34)n[nH]2)CC1 | 22 | – | – | – | 980
15 | Cc1ccc(C(=O)N2CCN(c3nc(Nc4cc(C)[nH]n4)c4cccn4n3)CC2)cc1 | 4.5 | – | – | – | 59

Further lines, with some results ahead:

Row | IC50 [1] [nM] | Ratio IC50 [3] | Ratio IC50 [4] | IC50 [5] [µM] | SMILES | IC50 [2] [nM]
16 | 2.1 | – | – | – | Cc1cc(Nc2nc(N3CCN(C(=O)c4ccccc4Br)CC3)nn3cccc23)n[nH]1 | 180
17 | 110 | – | – | – | CC(C)n1cnc(Nc2nc(N3CCN(C(=O)Cc4ccccc4)CC3)nn3cccc23)c1 | 670
18 | – | 11 | 5 | – | Cc1cc(Nc2nc(N3CCN(C(=O)N(C)C)CC3)nn3cccc23)n[nH]1 | –
19 | – | 15 | 16 | – | Cc1cc(Nc2nc(N3CCNCC3)nn3cccc23)n[nH]1 | –
20 | 4.8 | – | – | – | Cc1cc(Nc2nc(N3CCN(C(=O)c4ccc(C#N)cc4)CC3)nn3cccc23)n[nH]1 | 6.2
21 | 22 | 5 | – | – | CCC(=O)N1CCN(c2nc(Nc3cc(C)[nH]n3)c3cccn3n2)CC1 | –
22 | 9.3 | – | – | – | Cc1cc(Nc2nc(N3CCN(C(=O)N(C)C)CC3)nn3cccc23)[nH]n1 | –
23 | 4.6 | – | – | – | Cc1cc(Nc2nc(N3CCN(C(=O)Cc4ccccc4F)CC3)nn3cccc23)n[nH]1 | 170
24 | 6 | – | – | – | Cc1cc(Nc2nc(N3CCN(C(=O)c4ccccc4C#N)CC3)nn3cccc23)n[nH]1 | 140
25 | 190 | 41 | 11 | – | O=C(Cc1ccccc1)N1CCN(c2nc(Nc3ccccn3)c3cccn3n2)CC1 | –
26 | 59 | 37 | 2.6 | – | O=C(Cc1ccccc1)N1CCN(c2nc(Nc3nccs3)c3cccn3n2)CC1 | 1200
27 | 1.1 | – | – | – | Cc1ccc(CC(=O)N2CCN(c3nc(Nc4cc(C)[nH]n4)c4cccn4n3)CC2)cc1 | 310
28 | 0.9 | 25 | 6.5 | – | Cc1cc(Nc2nc(N3CCN(C(=O)Cc4ccc(F)cc4)CC3)nn3cccc23)n[nH]1 | 54
29 | 2.2 | – | – | – | Cc1cc(Nc2nc(N3CCN(C(=O)c4ccccc4)CC3)nn3cccc23)n[nH]1 | 62
30 | 2.4 | – | – | – | Cc1cc(Nc2nc(N3CCN(C(=O)Cc4ccc(F)cc4F)CC3)nn3cccc23)n[nH]1 | 54
